Laboratory results: ChEMBL document CHEMBL4507270 (2021)

Experiments:
[1] = biological target: Serine/threonine-protein kinase 25 (Homo sapiens) (UniProt O00506)
[2] = biological target: Cyclin-dependent kinase 11B (Homo sapiens) (UniProt P21127)
[3] = system: Mast/stem cell growth factor receptor Kit (Homo sapiens), P10721 [V559D,V654A]
[4] = biological target: Epidermal growth factor receptor (Homo sapiens) (UniProt P00533)
[5] = biological target: Kappa-type opioid receptor (Homo sapiens, UniProt P41145); conditions: Compound concentration 10.0 uM
[6] = biological target: Proto-oncogene tyrosine-protein kinase Src (Homo sapiens) (UniProt P12931)
[7] = biological target: Mitogen-activated protein kinase kinase kinase 11 (Homo sapiens) (UniProt Q16584)
[8] = biological target: Insulin receptor-related protein (Homo sapiens) (UniProt P14616)
[9] = biological target: Alpha-1D adrenergic receptor (Homo sapiens) (UniProt P25100); conditions: Compound concentration 10.0 uM
[10] = biological target: Serine/threonine-protein kinase OSR1 (Homo sapiens) (UniProt O95747)
[11] = biological target: Protein kinase C eta type (Homo sapiens) (UniProt P24723)
[12] = biological target: Serine/threonine-protein kinase TBK1 (Homo sapiens) (UniProt Q9UHD2)
[13] = system: Epidermal growth factor receptor (Homo sapiens), P00533 [T790M]
[14] = biological target: D(2) dopamine receptor (Homo sapiens, UniProt P14416); conditions: Compound concentration 10.0 uM
[15] = biological target: Activin receptor type-1-like (Homo sapiens) (UniProt P37023)
[16] = biological target: Calcium-dependent protein kinase 1 (Plasmodium falciparum) (UniProt P62344)
[17] = system: Phosphatidylinositol 4,5-bisphosphate 3-kinase catalytic subunit alpha isoform (Homo sapiens), P42336 [E542K]
[18] = biological target: Serine/threonine-protein kinase MARK1 (Homo sapiens) (UniProt Q9P0L2)
[19] = system: Tyrosine-protein kinase ABL1 (Homo sapiens), P00519 [Q252H]
[20] = biological target: Serine/threonine-protein kinase BRSK2 (Homo sapiens) (UniProt Q8IWQ3)
[21] = biological target: Serine/threonine-protein kinase 16 (Homo sapiens) (UniProt O75716)
[22] = biological target: Leucine-rich repeat serine/threonine-protein kinase 2 (Homo sapiens) (UniProt Q5S007)
[23] = biological target: cAMP-dependent protein kinase catalytic subunit beta (Homo sapiens) (UniProt P22694)
[24] = biological target: 5-hydroxytryptamine receptor 2C (Homo sapiens) (UniProt P28335); conditions: Compound concentration 10.0 uM
[25] = biological target: Serine/threonine-protein kinase TAO1 (Homo sapiens) (UniProt Q7L7X3)
[26] = biological target: Ribosomal protein S6 kinase beta-1 (Homo sapiens) (UniProt P23443)
[27] = biological target: Serine/threonine-protein kinase STK11 (Homo sapiens) (UniProt Q15831)
[28] = biological target: Myosin-IIIa (Homo sapiens) (UniProt Q8NEV4)
[29] = biological target: D(1A) dopamine receptor (Homo sapiens) (UniProt P21728); conditions: Compound concentration 10.0 uM
[30] = biological target: Serine/threonine-protein kinase D1 (Homo sapiens) (UniProt Q15139)
[31] = biological target: Serine/threonine-protein kinase Sgk3 (Homo sapiens) (UniProt Q96BR1)
[32] = biological target: Mitogen-activated protein kinase kinase kinase 2 (Homo sapiens) (UniProt Q9Y2U5)
[33] = system: ALK tyrosine kinase receptor (Homo sapiens), Q9UM73 [L1196M]
[34] = biological target: cAMP-dependent protein kinase catalytic subunit PRKX (Homo sapiens) (UniProt P51817)
[35] = biological target: Serine/threonine-protein kinase Nek7 (Homo sapiens) (UniProt Q8TDX7)
[36] = biological target: Muscarinic acetylcholine receptor M1 (Homo sapiens) (UniProt P11229); conditions: Compound concentration 10.0 uM
[37] = biological target: Platelet-derived growth factor receptor beta (Homo sapiens, UniProt P09619)
[38] = biological target: Tyrosine-protein kinase Yes (Homo sapiens) (UniProt P07947)
[39] = biological target: Fibroblast growth factor receptor 1 (Homo sapiens, UniProt P11362)
[40] = biological target: Protein kinase C theta type (Homo sapiens) (UniProt Q04759)
[41] = biological target: Casein kinase I isoform epsilon (Homo sapiens) (UniProt P49674)
[42] = biological target: Ribosomal protein S6 kinase alpha-1 (Homo sapiens) (UniProt Q15418)
[43] = biological target: Myosin light chain kinase family member 4 (Homo sapiens) (UniProt Q86YV6)
[44] = biological target: Serine/threonine-protein kinase Chk2 (Homo sapiens) (UniProt O96017)
[45] = biological target: Wee1-like protein kinase (Homo sapiens) (UniProt P30291)
[46] = biological target: Activated CDC42 kinase 1 (Homo sapiens) (UniProt Q07912)
[47] = Compound concentration 1000.0 nM
[48] = Compound concentration 100.0 nM

Chain of Activin receptor type-1-like (Homo sapiens) (P37023 whole entry): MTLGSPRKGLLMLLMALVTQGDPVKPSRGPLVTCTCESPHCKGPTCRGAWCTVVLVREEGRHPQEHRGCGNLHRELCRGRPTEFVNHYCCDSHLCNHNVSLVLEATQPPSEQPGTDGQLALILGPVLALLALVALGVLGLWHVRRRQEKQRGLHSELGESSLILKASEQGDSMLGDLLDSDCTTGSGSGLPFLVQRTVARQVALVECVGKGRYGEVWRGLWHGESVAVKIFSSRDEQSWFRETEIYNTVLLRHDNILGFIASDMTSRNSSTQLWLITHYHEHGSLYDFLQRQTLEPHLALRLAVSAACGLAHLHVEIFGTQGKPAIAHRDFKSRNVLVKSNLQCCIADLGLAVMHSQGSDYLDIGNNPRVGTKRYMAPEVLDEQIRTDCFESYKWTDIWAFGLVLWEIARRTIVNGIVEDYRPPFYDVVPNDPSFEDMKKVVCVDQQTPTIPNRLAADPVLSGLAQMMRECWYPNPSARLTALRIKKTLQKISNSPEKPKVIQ
Chain of Serine/threonine-protein kinase BRSK2 (Homo sapiens) (Q8IWQ3 whole entry): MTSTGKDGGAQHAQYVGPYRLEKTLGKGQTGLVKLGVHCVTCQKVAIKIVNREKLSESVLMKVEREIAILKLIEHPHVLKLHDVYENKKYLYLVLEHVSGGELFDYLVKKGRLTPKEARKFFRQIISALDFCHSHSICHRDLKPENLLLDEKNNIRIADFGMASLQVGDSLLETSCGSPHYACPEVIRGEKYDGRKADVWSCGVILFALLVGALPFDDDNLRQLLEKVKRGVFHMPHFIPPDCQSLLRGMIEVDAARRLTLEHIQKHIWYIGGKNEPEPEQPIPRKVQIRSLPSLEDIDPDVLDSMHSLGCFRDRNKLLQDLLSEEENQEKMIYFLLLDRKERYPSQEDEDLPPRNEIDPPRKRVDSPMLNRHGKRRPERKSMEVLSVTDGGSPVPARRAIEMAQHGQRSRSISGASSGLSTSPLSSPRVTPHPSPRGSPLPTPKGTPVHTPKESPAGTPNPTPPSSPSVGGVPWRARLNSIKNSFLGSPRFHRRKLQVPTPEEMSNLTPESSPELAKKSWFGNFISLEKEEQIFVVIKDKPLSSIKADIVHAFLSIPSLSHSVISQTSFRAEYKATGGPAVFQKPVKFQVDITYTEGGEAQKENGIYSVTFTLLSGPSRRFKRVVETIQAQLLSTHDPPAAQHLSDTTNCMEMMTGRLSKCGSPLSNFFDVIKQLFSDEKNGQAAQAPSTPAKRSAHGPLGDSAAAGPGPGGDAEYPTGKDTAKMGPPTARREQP
Chain of Tyrosine-protein kinase Yes (Homo sapiens) (P07947 2-543 limits assumed): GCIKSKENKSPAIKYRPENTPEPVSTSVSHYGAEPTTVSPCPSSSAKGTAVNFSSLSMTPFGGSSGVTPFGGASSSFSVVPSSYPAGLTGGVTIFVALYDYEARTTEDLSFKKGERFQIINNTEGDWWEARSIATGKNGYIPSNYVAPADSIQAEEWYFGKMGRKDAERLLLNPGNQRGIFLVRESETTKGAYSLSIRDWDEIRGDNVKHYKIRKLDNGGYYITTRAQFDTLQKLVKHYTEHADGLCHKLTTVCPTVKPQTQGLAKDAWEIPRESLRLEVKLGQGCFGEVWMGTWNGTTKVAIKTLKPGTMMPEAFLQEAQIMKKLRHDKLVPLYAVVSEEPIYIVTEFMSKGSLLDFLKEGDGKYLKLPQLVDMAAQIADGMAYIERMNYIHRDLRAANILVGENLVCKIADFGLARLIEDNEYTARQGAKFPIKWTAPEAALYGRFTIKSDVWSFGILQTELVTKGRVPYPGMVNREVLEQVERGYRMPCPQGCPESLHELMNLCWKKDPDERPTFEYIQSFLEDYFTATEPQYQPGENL
Chain of Serine/threonine-protein kinase D1 (Homo sapiens) (Q15139 whole entry): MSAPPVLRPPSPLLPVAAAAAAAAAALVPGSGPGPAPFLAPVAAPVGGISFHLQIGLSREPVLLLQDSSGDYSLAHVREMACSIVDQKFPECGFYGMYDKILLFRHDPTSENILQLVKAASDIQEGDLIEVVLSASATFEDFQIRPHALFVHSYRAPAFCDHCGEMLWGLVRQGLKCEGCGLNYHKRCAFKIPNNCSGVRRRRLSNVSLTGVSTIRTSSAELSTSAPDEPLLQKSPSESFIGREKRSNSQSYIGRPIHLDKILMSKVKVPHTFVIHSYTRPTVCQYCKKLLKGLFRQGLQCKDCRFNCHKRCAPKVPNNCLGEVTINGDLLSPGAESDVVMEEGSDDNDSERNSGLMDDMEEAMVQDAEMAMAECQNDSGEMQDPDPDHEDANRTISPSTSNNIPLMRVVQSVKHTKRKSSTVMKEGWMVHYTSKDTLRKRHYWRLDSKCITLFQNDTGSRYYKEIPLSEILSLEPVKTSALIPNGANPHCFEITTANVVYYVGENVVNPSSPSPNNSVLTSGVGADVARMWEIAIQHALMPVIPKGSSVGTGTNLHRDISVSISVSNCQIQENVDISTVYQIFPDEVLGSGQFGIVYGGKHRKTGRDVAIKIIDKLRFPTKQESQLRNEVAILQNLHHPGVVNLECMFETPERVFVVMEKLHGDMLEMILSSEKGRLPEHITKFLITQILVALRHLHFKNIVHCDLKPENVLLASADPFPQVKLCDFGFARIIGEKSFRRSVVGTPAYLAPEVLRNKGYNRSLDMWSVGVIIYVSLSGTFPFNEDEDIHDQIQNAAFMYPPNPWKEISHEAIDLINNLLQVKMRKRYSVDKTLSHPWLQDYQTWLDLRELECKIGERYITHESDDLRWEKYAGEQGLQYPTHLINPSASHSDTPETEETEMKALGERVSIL
Chain of Ribosomal protein S6 kinase beta-1 (Homo sapiens) (P23443 whole entry, looked up): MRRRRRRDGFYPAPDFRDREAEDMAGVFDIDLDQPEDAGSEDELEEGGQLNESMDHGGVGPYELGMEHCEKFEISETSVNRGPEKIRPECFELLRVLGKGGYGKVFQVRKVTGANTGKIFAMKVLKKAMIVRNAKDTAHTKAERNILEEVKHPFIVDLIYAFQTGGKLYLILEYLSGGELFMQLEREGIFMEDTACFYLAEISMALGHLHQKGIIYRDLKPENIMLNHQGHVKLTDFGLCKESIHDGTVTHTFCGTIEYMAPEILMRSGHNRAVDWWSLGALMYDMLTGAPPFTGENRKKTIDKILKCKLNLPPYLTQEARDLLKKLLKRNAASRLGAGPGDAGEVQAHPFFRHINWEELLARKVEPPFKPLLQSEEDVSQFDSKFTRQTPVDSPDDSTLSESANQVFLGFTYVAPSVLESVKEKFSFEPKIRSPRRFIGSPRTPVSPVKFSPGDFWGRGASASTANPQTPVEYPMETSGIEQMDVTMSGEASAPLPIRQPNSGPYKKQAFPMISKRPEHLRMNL
Chain of Myosin-IIIa (Homo sapiens) (Q8NEV4 whole entry): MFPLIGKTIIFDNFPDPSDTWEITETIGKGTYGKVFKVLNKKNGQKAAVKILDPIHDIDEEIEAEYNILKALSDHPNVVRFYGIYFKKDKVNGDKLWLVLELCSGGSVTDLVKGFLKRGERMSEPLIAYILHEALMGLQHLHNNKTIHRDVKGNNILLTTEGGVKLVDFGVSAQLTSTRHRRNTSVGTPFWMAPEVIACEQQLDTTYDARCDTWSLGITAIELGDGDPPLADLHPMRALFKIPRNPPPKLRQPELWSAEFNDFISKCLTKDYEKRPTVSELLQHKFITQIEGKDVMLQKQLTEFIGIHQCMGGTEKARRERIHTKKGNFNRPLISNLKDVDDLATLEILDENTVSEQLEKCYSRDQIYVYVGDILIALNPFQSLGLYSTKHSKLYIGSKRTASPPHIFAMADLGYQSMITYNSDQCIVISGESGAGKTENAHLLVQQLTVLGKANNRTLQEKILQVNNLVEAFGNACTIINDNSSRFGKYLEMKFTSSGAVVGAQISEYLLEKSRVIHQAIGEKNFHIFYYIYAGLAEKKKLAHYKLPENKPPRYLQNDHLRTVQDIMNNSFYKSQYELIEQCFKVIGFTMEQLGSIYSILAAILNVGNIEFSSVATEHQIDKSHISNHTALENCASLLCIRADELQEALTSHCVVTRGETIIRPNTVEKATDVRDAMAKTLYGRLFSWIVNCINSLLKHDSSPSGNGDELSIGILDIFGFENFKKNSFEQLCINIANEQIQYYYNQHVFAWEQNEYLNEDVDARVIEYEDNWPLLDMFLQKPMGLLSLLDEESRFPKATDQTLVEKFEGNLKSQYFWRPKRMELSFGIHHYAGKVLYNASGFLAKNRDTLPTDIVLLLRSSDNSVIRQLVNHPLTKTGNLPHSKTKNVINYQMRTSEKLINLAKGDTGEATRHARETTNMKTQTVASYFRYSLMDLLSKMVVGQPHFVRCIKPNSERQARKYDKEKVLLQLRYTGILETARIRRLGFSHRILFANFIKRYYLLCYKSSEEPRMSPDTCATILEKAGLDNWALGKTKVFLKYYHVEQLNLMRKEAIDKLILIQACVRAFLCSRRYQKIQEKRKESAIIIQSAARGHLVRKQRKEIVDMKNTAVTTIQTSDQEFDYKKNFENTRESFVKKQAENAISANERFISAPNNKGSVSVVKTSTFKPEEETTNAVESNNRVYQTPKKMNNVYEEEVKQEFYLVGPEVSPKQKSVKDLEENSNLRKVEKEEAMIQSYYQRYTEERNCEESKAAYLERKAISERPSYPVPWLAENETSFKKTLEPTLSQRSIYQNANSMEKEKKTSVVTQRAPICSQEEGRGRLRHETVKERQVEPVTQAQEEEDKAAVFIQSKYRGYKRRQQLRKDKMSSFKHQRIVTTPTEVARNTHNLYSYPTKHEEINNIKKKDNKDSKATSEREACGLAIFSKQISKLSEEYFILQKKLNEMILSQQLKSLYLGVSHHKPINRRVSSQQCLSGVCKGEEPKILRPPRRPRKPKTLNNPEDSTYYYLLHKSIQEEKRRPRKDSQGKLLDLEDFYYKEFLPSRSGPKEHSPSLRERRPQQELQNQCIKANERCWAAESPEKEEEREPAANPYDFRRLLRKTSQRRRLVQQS

SMILES: Cc1cc(NC(=O)c2cccc(S(F)(F)(F)(F)F)c2)cc(-n2ccn3nc(-c4cccnc4)cc23)c1 [BAY-309]
- residual activity [1, 47]: 59.5%
- residual activity [2, 47]: 100%
- residual activity [3, 47]: 100%
- residual activity [4, 47]: 100%
- inhibition [5]: 64.8%
- residual activity [6, 47]: 100%
- residual activity [7, 47]: 100%
- residual activity [8, 47]: 100%
- inhibition [9]: 27.7%
- residual activity [10, 47]: 100%
- residual activity [11, 47]: 100%
- residual activity [12, 47]: 49.7%
- residual activity [13, 47]: 100%
- inhibition [14]: 62.1%
- residual activity [15, 47]: 100%
- residual activity [16, 47]: 95.1%
- residual activity [17, 47]: 75.2%
- residual activity [18, 47]: 100%
- residual activity [19, 47]: 100%
- residual activity [20, 47]: 100%
- residual activity [21, 47]: 53.9%
- residual activity [22, 47]: 74.6%
- residual activity [23, 47]: 100%
- inhibition [24]: 66%
- residual activity [25, 47]: 100%
- residual activity [26, 47]: 66.2%
- residual activity [27, 47]: 100%
- residual activity [28, 47]: 100%
- inhibition [29]: 20.6%
- residual activity [30, 47]: 100%
- residual activity [31, 47]: 72.1%
- residual activity [32, 47]: 52.7%
- residual activity [33, 47]: 100%
- residual activity [34, 47]: 100%
- residual activity [35, 47]: 100%
- inhibition [36]: 9.28%
- residual activity [37, 47]: 100%
- residual activity [38, 47]: 100%
- residual activity [39, 47]: 100%
- residual activity [40, 47]: 60.3%
- residual activity [41, 47]: 75.7%
- residual activity [42, 47]: 100%
- residual activity [43, 47]: 91.4%
- residual activity [44, 47]: 100%
- residual activity [45, 47]: 100%
- residual activity [46, 47]: 100%

SMILES: Cc1cc(C)c(-n2ccn3nc(-c4cccnc4)cc23)cc1NC(=O)c1cc(C#N)cc(S(F)(F)(F)(F)F)c1 [BAY-826]
- residual activity [1, 48]: 79.1%
- residual activity [2, 48]: 93.2%
- residual activity [3, 48]: 89.4%
- residual activity [4, 48]: 85.1%
- inhibition [5]: 89.4%
- residual activity [6, 48]: 92.6%
- residual activity [7, 48]: 100%
- residual activity [8, 48]: 91.8%
- inhibition [9]: -2.46%
- residual activity [10, 48]: 87%
- residual activity [11, 48]: 99.5%
- residual activity [12, 48]: 62.8%
- residual activity [13, 48]: 61.6%
- inhibition [14]: 8.74%
- residual activity [15, 48]: 78.9%
- residual activity [16, 48]: 88.9%
- residual activity [17, 48]: 83.6%
- residual activity [18, 48]: 96.7%
- residual activity [19, 48]: 72.9%
- residual activity [20, 48]: 97.5%
- residual activity [21, 48]: 64.3%
- residual activity [22, 48]: 83.5%
- residual activity [23, 48]: 100%
- inhibition [24]: 34.5%
- residual activity [25, 48]: 45.2%
- residual activity [26, 48]: 93%
- residual activity [27, 48]: 75.9%
- residual activity [28, 48]: 94.9%
- inhibition [29]: 4.82%
- residual activity [30, 48]: 81.2%
- residual activity [31, 48]: 81.5%
- residual activity [32, 48]: 86.4%
- residual activity [33, 48]: 99.6%
- residual activity [34, 48]: 68.5%
- residual activity [35, 48]: 75.5%
- inhibition [36]: 24.8%
- residual activity [37, 48]: 74.8%
- residual activity [38, 48]: 70.7%
- residual activity [39, 48]: 85.5%
- residual activity [40, 48]: 100%
- residual activity [41, 48]: 98.7%
- residual activity [42, 48]: 100%
- residual activity [43, 48]: 100%
- residual activity [44, 48]: 100%
- residual activity [45, 48]: 100%
- residual activity [46, 48]: 83.6%
